The test system of one assay is liver of aged rat. The experiment in a line: Liver of aged rat preserved in organ preservation solution, microscopy and bleb count (Test Example 14). As to conditions: for sinusoidal constriction and appearance of blebs in liver tissue slice: 100 ng/ml in organ preservation solution, SD rats aged 24 months. The method, then:
The effect of action of the hyaluronic acid fragment on the liver of aged rat was investigated. The following test solutions were prepared.
(Test Solutions) • Organ preservation solution (University of Wisconsin solution: the standard solution used for organ preservation) • The above organ preservation solution, into which hyaluronic acid fragment (4mer) was dissolved to a final concentration of 100 ng/ml • The above organ preservation solution, into which hyaluronic acid fragment (L3mer) was dissolved to a final concentration of 100 ng/ml • The above organ preservation solution, into which hyaluronic acid fragment (L3mer) was dissolved to a final concentration of 100 ng/ml, then dissolving TLR4/MD2 into the above organ preservation solution, to a final concentration of 10 μg/ml.
SD rats aged 24 months (aged rats) were injected with the test solutions from the hepatic portal, and after perfusion of 7.5 ml, were preserved for six hours in the same solution at 37° C. Slices were prepared from blocks prepared by freezing of the livers embedded in OCT compound, and were subjected to microscope examination.
Prior to preservation, distinct sinusoids could be observed. […] Blebs (bubbles) that appear in ischemic liver tissue arise as a result of an activation of Ca ion-dependent proteolytic enzymes and a disorder of the cytoskeletal system, in which lowered ATP levels due to ischemia lead to effusion of Ca ions from the mitochondria to the cellular cytoplasm. In the course of passing through these changes, the liver cells experience cell death. Such changes have been confirmed to occur in clinical conditions such as pharmaceutical toxicity, aging, and the like, and in concanavalin A-induced liver damage.

In assay [1] the test system is human oral epithelial cells (Ca9-22 cells). The experiment in a line: Hydrogen peroxide induced aging of human oral epithelial cells, MTS assay (Test Example 19). Type of assay: cell-based. As to conditions: hydrogen peroxide 1 μM 15 min, then 100 ng/ml for 3 hours. The method, then:
It was investigated whether the process, in which mitochondrial function of human oral epithelial cells (Ca9-22 cells) declines when treated with hydrogen peroxide, is affected by treatment with the hyaluronic acid fragment. Specifically, the following test was performed.
Using a DMEM culture medium (made by Wako Pure Chemical Industries, Ltd.), human oral epithelial cells (Ca9-22 cells) were cultured by usual methods at 37° C. under 5% CO2. Hydrogen peroxide was added to the culture medium to a final concentration of 1 μM to bring about stimulation for a 15-minute period, and the culture broth was then transferred to DMEM culture medium containing no hyaluronic acid fragments; to DMEM culture medium containing hyaluronic acid fragment (L3mer) in a final concentration of 100 ng/ml; to DMEM culture medium containing hyaluronic acid fragment (4mer) in a final concentration of 100 ng/ml; or to DMEM culture medium containing 900 kDa hyaluronic acid in a final concentration of 100 ng/ml, and cultured for 3 hours.
(§1) After 3 hours had passed, an MTS assay was performed. On the basis of the action, in which MTS is converted to formazan by dehydrogenation in the mitochondria of the cell, OD 490 nm was measured to measure mitochondrial function.
(Tetrazolium assays rely on reduction of a dye to a coloured formazan, in cell work by metabolically active cells.)

Assay [2] deals with stem cells of human epidermal keratinocytes. Nature of the assay: Count of small dividing cells with high sirtuin protein expression, with or without TLR4/MD2 (Test Examples 4-6). Type of assay: cell-based. As to conditions: for sirtuin protein expression in stem cells (count of small dividing cells with high sirtuin expression) vs negative control: 24 hours; for sirtuin induction in stem cells upon addition of TLR4/MD2: 10 ng/ml fragment plus 1 g/ml of TLR4/MD2. The method, then:
A test of sirtuin induction in human epidermal keratinocytes was conducted in the same manner as in Test Example 1.
The results are shown as average count within the observed visual field.
In the meantime, similar observations were made in relation to human epidermal keratinocytes cultured in a culture broth to which 10 ng/ml of hyaluronic acid fragment (4mer) and 1 g/ml of TLR4/MD2 (TLR4 (toll-like receptor 4) protein produced by genetic recombination techniques, made by R&D Systems Inc.) were added.
A test similar to Test Example 5 was carried out, using chemically synthesized three-unit size hyaluronic acid fragments (L3mer) in place of hyaluronic acid fragment (4mer).

Assay [3] deals with human large intestine epithelial cells (HT29 cells). Nature of the assay: Hydrogen peroxide induced aging of human large intestine epithelial cells, MTS assay (Test Examples 16-18). Type of assay: cell-based. The settings on record: for suppression of cellular aging (MTS value, OD 490 nm): hydrogen peroxide 10 μM 15 min; for suppression of cellular aging with TLR4/MD2 added (MTS): hydrogen peroxide 10 μM, 100 ng/ml plus TLR4/MD2 10 μg/ml, 3 hours. How it is done:
Human large intestine epithelial cells (HT29 cells) were experienced cellular aging (decline in mitochondrial activity due to injury, or a drop in the MTS value once cell death occurs) due to stimulation by the hydrogen peroxide when treated with hydrogen peroxide, and it was investigated whether this process is affected by treatment with the hyaluronic acid fragment. Specifically, the following test was performed.
Using a DMEM culture medium (made by Wako Pure Chemical Industries, Ltd.), human large intestine epithelial cells (HT29 cells) were cultured by usual methods at 37° C. under 5% CO2. Hydrogen peroxide was added to the culture medium to a final concentration of 10 μM to bring about stimulation for a 15-minute period, and the culture broth was then transferred to DMEM culture medium containing no hyaluronic acid fragments; to DMEM culture medium containing hyaluronic acid fragment (4mer) in a final concentration of 100 ng/ml; or to DMEM culture medium containing the hyaluronic acid fragment (4mer) plus TLR4/MD2 in a final concentration of 10 μg/ml, and cultured for 3 hours.
as §1
Using hyaluronic acid fragment (4mer), hyaluronic acid fragment (L4mer) and hyaluronic acid fragment (L3mer) as test substances, tests similar to those of Test Example 16 were performed, except that the culture time following transfer to the culture medium containing the test substance was one hour.
Tests similar to those of Test Example 16 were performed, except for using hyaluronic acid fragment (L4mer), and hyaluronic acid fragment (L3mer) as test substances.

The test system of another assay is Keratin K14. Nature of the assay: Keratinocyte marker Keratin K14 in human epidermal keratinocytes (Test Example 22). Type of assay: cell-based. The settings on record: for Keratin K14 induction with TLR4/MD2 added: plus TLR4/MD2 1 μg/ml; for cells with high expression of Keratin K14 (immunostaining intensity): stimulated as in Test Example 1. How it is done:
(§2) Human epidermal keratinocytes were stimulated in the same manner as in Test Example 1, except for using the 4mer or the L3mer as the hyaluronic acid fragment, and further adding TLR4/MD2 to a final concentration of 1 μg/ml.
The cells in each well were stained with anti keratin K14 antibody, and the immunostaining intensity was measured with an Array Scan scanning device (made by Thermo Scientific). Keratin K14 is a marker of basal layer keratinocytes.

The test system of another assay is filaggrin. The experiment in a line: Keratinocyte marker Filaggrin in human epidermal keratinocytes (Test Example 23). As to conditions: for filaggrin induction with TLR4/MD2 added: plus TLR4/MD2 1 μg/ml; for cells with high expression of filaggrin (immunostaining intensity): stimulated as in Test Example 1. Type of assay: cell-based. The method, then: as §2
The cells in each well were stained with the anti filaggrin antibody, and the immunostaining intensity was measured with an Array Scan scanning device (made by Thermo Scientific). Filaggrin, which is produced by granular layer keratinocytes, is a marker of mature keratinocytes.

[4] abbreviates: then test substance for one hour.

Take `CC(=O)N[C@H]1[C@H](O[C@H]2[C@H](O)[C@@H](O)[C@H](O[C@H]3[C@H](O)[C@@H](CO)OC(O)[C@@H]3NC(C)=O)O[C@@H]2C(=O)O)O[C@H](CO)[C@@H](O)[C@@H]1O[C@@H]1O[C@H](C(=O)O)[C@@H](O)[C@H](O)[C@H]1O` (some centres unmarked) [4mer, GlcA(-GlcNAc-GlcA)1-GlcNAc]: in the assay on liver of aged rat (six hours at 37° C.), the “sinusoidal constriction and appearance of blebs in liver tissue slice” value was “sinusoidal constriction and appearance of blebs were suppressed”. Further, the “suppression of cellular aging (MTS, mitochondrial function)” value in assay [1] is “suppress cellular aging”. Also, the “sirtuin protein expression in stem cells (count of small dividing cells with high sirtuin expression) vs negative control” value (from here on “sirtuin protein expression … vs negative control”) in assay [2] (0.01 ng/ml) was “markedly promoted”. In addition, the “sirtuin induction in stem cells upon addition of TLR4/MD2” value in assay [2] is “completely inhibited”. For the same compound, the “sirtuin protein expression … vs negative control” value in assay [2] (10 ng/ml) is “markedly promoted”. In addition, in assay [3] (then 100 ng/ml for 3 hours), the “suppression of cellular aging (MTS value, OD 490 nm)” value (shortened to “suppression … (MTS value, OD 490 nm)”) is listed as “suppressed cellular aging”. Also, in assay [3] (setting [4]), the “suppression … (MTS value, OD 490 nm)” value is “showed effect in suppressing cellular aging”. The “suppression of cellular aging with TLR4/MD2 added (MTS)” value in assay [3] is reported as “inhibited by addition of TLR4/MD2”. In addition, in the assay on Keratin K14, the “Keratin K14 induction with TLR4/MD2 added” value is recorded as “inhibited by addition of TLR4/MD2” and the “cells with high expression of Keratin K14 (immunostaining intensity)” value is reported as “cells with high expression of Keratin K14 increased”. Moreover, in the assay with filaggrin, the “filaggrin induction with TLR4/MD2 added” value is “inhibited by addition of TLR4/MD2” and the “cells with high expression of filaggrin (immunostaining intensity)” value is “cells with high expression of filaggrin increased”.
Turning to `CC(=O)NC1C(O[C@@H]2OC(C(=O)O)[C@@H](O)C(O)C2O)[C@H](O)C(CO)O[C@H]1O[C@@H]1C(C(=O)O)O[C@@H](OCCCN=[N+]=[N-])C(O)C1O` (some centres unmarked) [L3mer], the “sinusoidal constriction and appearance of blebs in liver tissue slice” value with liver of aged rat (six hours at 37° C.) was “sinusoidal constriction and appearance of blebs were suppressed”. Further, the “effect in suppressing the appearance of blebs with TLR4/MD2 added (bleb count)” value in the assay with liver of aged rat (100 ng/ml plus TLR4/MD2 10 μg/ml) is “reduced by the addition of TLR4/MD2”. In the assay with liver of aged rat (100 ng/ml plus TLR4/MD2 10 μg/ml, six hours at 37° C.), the “condition of liver tissue slice with TLR4/MD2 added” value is recorded as “numerous blebs (bubbles) appeared”. In addition, the “effect of suppressing the appearance of blebs (bleb count per unit surface area)” value with liver of aged rat (100 ng/ml, comparison L3mer vs 4mer) is “higher with L3mer treatment than with 4mer treatment”. In addition, the “suppression of cellular aging (MTS, mitochondrial function)” value in assay [1] is “suppress cellular aging”. Besides, the “sirtuin induction in stem cells upon addition of TLR4/MD2” value in assay [2] was “substantially completely inhibited”. Further, the “sirtuin protein expression … vs negative control” value in assay [2] (10 ng/ml) is “give rise to sirtuin induction”. In addition, the “suppression … (MTS value, OD 490 nm)” value in assay [3] (then 100 ng/ml for 3 hours) was “showed effect in suppressing cellular aging”. Also, the “suppression … (MTS value, OD 490 nm)” value in assay [3] (setting [4]) is recorded as “showed effect in suppressing cellular aging”. Further, the “suppression of cellular aging with TLR4/MD2 added (MTS)” value in assay [3] is given as “inhibited by the addition of TLR4/MD2”. In addition, in the assay with Keratin K14, the “Keratin K14 induction with TLR4/MD2 added” value was “inhibited by addition of TLR4/MD2” and the “cells with high expression of Keratin K14 (immunostaining intensity)” value is recorded as “cells with high expression of Keratin K14 increased”. In addition, in the assay on filaggrin, the “filaggrin induction with TLR4/MD2 added” value is “inhibited by addition of TLR4/MD2” and the “cells with high expression of filaggrin (immunostaining intensity)” value was “cells with high expression of filaggrin increased”.

These data come from patent publication US20150018305A1, “SIRTUIN INDUCER, TISSUE REPAIRING AGENT, HEPATOCYTE GROWTH FACTOR INDUCER, TISSUE HOMEOSTASIS MAINTENANCE AGENT, AND TLR4 AGONIST, HAVING HYALURONIC ACID FRAGMENT AS ACTIVE INGREDIENT” (HYALURONAN RESEARCH INSTITUTE, INC., priority 2012, published 2015).
